The record followed here is PubChem BioAssay AID652 (University of Pittsburgh Molecular Library Screening Center, 2007).

Molecules are shown by their SMILES. Calls of active or inactive are those of the source. How the calls were made is not given here.

One assay has as its target Gag-Pol polyprotein (Human immunodeficiency virus type 1 group M subtype B (isolate HXB2)) (UniProt P04585). The experiment in a line: concentration-response of HIV-1 RNase H blockers – biochemical, probe assessment, dose response (AID 652). The settings on record: HIV-1 RT RNase H enzymatic assay.
For the compound `CSc1ccc(C2C(C#N)=C(N)Oc3c2ccc(=O)c2c(C)oc(C)c32)cc1` (stereo not drawn), the half-inhibitory concentration (IC50) is 5.81 µM. Still for that read-out and setting: with `CCOC(=O)N1CC=C2C(C#N)=C(N)C(C#N)(C#N)[C@H](c3ccc(OC(C)C)c(OCC)c3)[C@H]2C1` the figure was 21.7 µM. The same measure, in the same setting: under `COc1ccc(-n2nc3cc(C)c(NC(=O)CC(C)C)cc3n2)cc1` stands 8.06 µM.

For `CCCCn1c(SCC(=O)OCC)nc2c1c(=O)[nH]c(=O)n2C`, the IC50 is > 50 µM (inactive). On the same count and under the same terms, under `O=C(CCSCCC(=O)NCc1ccco1)NCc1ccco1` stands 0.953 µM; under `COCCn1c(SCCN2CCOCC2)nc2c1c(=O)[nH]c(=O)n2C`, > 50 µM (inactive).

On to `CCCCCCn1c(SCC(=O)OC)nc2c1c(=O)[nH]c(=O)n2C`, for which the IC50 was 3.11 µM. Still for that read-out and setting: with `CCCCn1c(CN2C(=O)c3ccccc3C2=O)nc2ccccc2c1=O` the figure was 12.4 µM; with `CCOc1ccc(N2Cc3ccccc3C2)cc1`, 7.36 µM.

Regarding `S=C(Nc1ccccn1)c1ccccn1`, the IC50 was 4.96 µM.

Turning to `C1=C(c2ccc(-c3ccccc3)cc2)Nc2ncnn2C1c1ccco1` (stereo not drawn), the concentration for half-maximal inhibition (IC50) is 14.5 µM.

With `C=CCOC(=O)C1=C(C)NC(SCC(=O)Nc2ccc(C)c(Cl)c2)=C(C#N)C1c1ccco1` (stereo not drawn), the IC50 is 4.25 µM. On to `O=C1C=Cc2ccccc2C1=O`, for which the IC50 was 2.64 µM. As for `CCN(CC)C1=CC(=O)OC12CCCCC2`, the IC50 is 42.8 µM.

Still in this assay, the particulars now being: HIV-1 RT RNase H enzymatic assay, inhibition, at 50 µM, stronger effect = higher value.
Turning to `Cc1ccnc(-n2sc3ccccc3c2=O)n1`, the inhibition came out at 96.7%. For the compound `Nc1c(C(=O)N2CCCCC2)sc(=S)n1-c1ccccc1`, the inhibition turned out to be 83.2%. On the same count and under the same terms, with `COc1ccc(-c2nsc(SCC(=O)Nc3cc(C)on3)n2)cc1` the figure was 96.6%. Consider `CSc1ccc(C2C(C#N)=C(N)Oc3c2ccc(=O)c2c(C)oc(C)c32)cc1` (stereo not drawn), for which the inhibition was 77.4%. Same read-out and setting: with `NC(=O)c1cc(-c2ccccc2)sc1NC(=O)Cc1ccc(S(=O)(=O)N2CCOCC2)s1` the figure was 83.3%. As for `Cc1sc(-n2c(C)cc(/C=N/n3cnnc3)c2C)c(C#N)c1C`, the inhibition turned out to be 89.5%. Same read-out and setting: under `O=C(c1ccc2c3c(cccc13)C(=O)N(O)C2=O)N1CCCCC1` stands 91.7%. With `COc1ccccc1N1CSC2=C(C#N)C(c3ccc(SC)cc3)CC(=O)N2C1` (stereo not drawn), the inhibition is 97.1%. Turning to `COCCSc1ccccc1C(=O)Nc1cc(C)on1`, the inhibition was 65.1%.

`Cc1ccc(Cn2c(SCC(C)C)nc3c2c(=O)[nH]c(=O)n3C)cc1`: the inhibition came to 91.8%. For the compound `CCOC(=O)N1CC=C2C(C#N)=C(N)C(C#N)(C#N)[C@H](c3ccc(OC(C)C)c(OCC)c3)[C@H]2C1`, the inhibition was determined as 98.5%.

With `CC1CCN(S(=O)(=O)c2ccc(NC(=O)Cn3nnc(-c4ccccc4)n3)cc2)CC1`, the inhibition is 61.5%.

Consider `CC(C)CNC(=O)c1c(N)n(/N=C/c2ccccn2)c2nc3ccccc3nc12`, for which the inhibition came to 95%. For the compound `CCC1(C)Cc2c(sc3c2c(=O)n(C)c2nnc(SCc4ccc5c(c4)OCO5)n32)CO1` (stereo not drawn), the inhibition turned out to be 96.2%. Regarding `COc1ccc(-n2nc3cc(C)c(NC(=O)CC(C)C)cc3n2)cc1`, the inhibition is 93.4%. Still for that read-out and setting: with `Cc1ccc(-n2c(N)c(C(=O)N3CCN(C)CC3)sc2=S)cc1` the figure was 53.5%; with `Cc1cccc(C(=O)OCC(=O)Nc2ccc(N3CCCCC3)cc2)c1O`, 94.7%.

For `Cc1sc(NC(=O)c2oc3ccccc3c2C)c(C#N)c1C`, the inhibition stood at 90.3%. Take `O=C(c1ccccc1F)N1CCN(S(=O)(=O)c2ccc(S(=O)(=O)N3CCCCC3)cc2)CC1`: the inhibition came out at 95.5%. Regarding `Cc1cccc(-n2c(N)c(C(=O)N3CCN(C)CC3)sc2=S)c1`, the inhibition was determined as 41.7%. For the compound `CCCCn1c(SCC(=O)OCC)nc2c1c(=O)[nH]c(=O)n2C`, the inhibition came to 55.7%.

As to `O=C(CCSCCC(=O)NCc1ccco1)NCc1ccco1`, the inhibition worked out at 98.4%. Same read-out and setting: with `O=C1CC(c2ccco2)Cc2nc(Nc3nc(-c4ccccc4)c4ccccc4n3)ncc21` (stereo not drawn) the figure was 53.7%. On the same count and under the same terms, with `COc1ccc(OC)c(Nc2nc(-c3ccc(O)c(O)c3)cs2)c1` the figure was 97.8%; with `CCc1ccc(NC(=O)CSc2nc3cc(C(=O)OC)ccc3c(=O)n2Cc2ccco2)cc1`, 94.7%. The same measure, in the same setting: with `Cc1cc(NC(=O)CSc2ccc(-c3nc4cc(C)c(C)cc4[nH]3)cn2)no1` the figure was 83%; with `N#Cc1cc(-c2ccccc2)nn1-c1ccccc1`, 99.4%; with `COCCn1c(SCCN2CCOCC2)nc2c1c(=O)[nH]c(=O)n2C`, 40%. Turning to `Cc1cc(NC(=O)CSc2nc(C3CC3)nc3sc4c(c23)CCC(C)C4)no1` (stereo not drawn), the inhibition turned out to be 94.1%. Same read-out and setting: with `O=C(CCCn1c(SCC(=O)c2ccc(O)c(O)c2)nc2ccccc2c1=O)NCC1CCCO1` (stereo not drawn) the figure was 99.4%; with `Cc1nn(CCC#N)c2c1P(=S)(N1CCCC1)OC(c1ccc(F)cc1)=N2` (stereo not drawn), 90.2%; with `Nc1c(C(=O)N2CCOCC2)sc(=S)n1-c1ccccc1`, 75.2%. In the case of `COC(=O)c1sc(N2C(=O)c3oc4ccccc4c(=O)c3C2c2cccs2)nc1C` (stereo not drawn), the inhibition is 95.8%. Same read-out and setting: with `CCCCCCn1c(SCC(=O)OC)nc2c1c(=O)[nH]c(=O)n2C` the figure was 79.6%; with `Nc1sc2c(c1C(=O)NC1CCS(=O)(=O)C1)CCC2` (stereo not drawn), 74.5%; with `O=C(CCN1C(=O)c2ccccc2C1=O)Nc1ccc(-c2nc3ccccc3o2)cc1`, 92.1%. The same measure, in the same setting: under `CC(C)(C)C1=Nn2c(nnc2-c2ccccn2)SC1` stands 80.5%; under `CCN1CCN(c2nc(C)nc3c2sc(=S)n3C)CC1`, 76.3%; under `Cc1nn(CCc2nc(-c3ccco3)cs2)c2[nH]c(=O)cc(C(F)(F)F)c12`, 97.6%. The same measure, in the same setting: with `COc1ccc2ccccc2c1C1CC(=O)N2CN(C3CCCCC3)CSC2=C1C#N` (stereo not drawn) the figure was 92.3%. Turning to `O=C(CSc1nc2ccccc2c2nc3ccccc3n12)NCc1ccco1`, the inhibition came out at 67.7%.

Consider `COc1ccc(OC)c(CCNC(=O)Cn2sc3nc(C)cc(C)c3c2=O)c1`, for which the inhibition was found to be 91.6%.

In the case of `CC(C)C1N=C2c3ccccc3N=C(SCC(=O)c3ccc(O)c(O)c3)N2C1=O` (stereo not drawn), the inhibition turned out to be 99.8%.

With `COc1cc(-c2nnc3sc(-c4cccnc4)nn23)cc(OC)c1OC`, the inhibition was 72.2%. Still for that read-out and setting: under `CCC(C)Sc1nc2c(c(=O)[nH]c(=O)n2C)n1CC(O)COc1cccc2ccccc12` (stereo not drawn) stands 95%; under `CCOc1ccc(S(=O)(=O)Nc2cc(Sc3ncn[nH]3)c3oc(=O)sc3c2)cc1`, 94.6%; under `Cc1cc(C)c(NC(=O)Cn2c(=O)n(Cc3ccco3)c(=O)c3ccccc32)c(C)c1`, 76.8%. Same read-out and setting: under `CCOC(=O)c1c(C)[nH]c(C(=O)CSc2nc3ccccc3o2)c1C` stands 93.7%; under `CC(Cc1ccc(O)c(O)c1)C(C)Cc1ccc(O)c(O)c1` (stereo not drawn), 99%. Same read-out and setting: with `COc1ccc2[nH]c(=O)c(CN(C3CCCCC3)C(c3nnnn3Cc3ccco3)C(C)C)cc2c1` (stereo not drawn) the figure was 88.5%; with `CC(=O)c1cccc(NC(=O)c2cc(-c3ccc(C)cc3)on2)c1`, 95.8%; with `O=c1[nH]c(=O)n(-c2ccc(F)cc2)c(O)c1C=Nc1ccccc1N1CCCC1`, 83.7%. Take `COc1cc(C2CC(=O)N3CN(c4ccccc4C)CSC3=C2C#N)cc(OC)c1OC` (stereo not drawn): the inhibition came out at 100%. The same measure, in the same setting: under `CC(=O)N(Cc1cc(=O)[nH]c2ccccc12)c1cccc(C)c1` stands 89.9%; under `CCOc1cc(C2c3c(oc4cc(C)c(Cl)cc4c3=O)C(=O)N2Cc2ccco2)ccc1O` (stereo not drawn), 76.5%. As for `CCCCn1c(CN2C(=O)c3ccccc3C2=O)nc2ccccc2c1=O`, the inhibition was 98%. With `COC(=O)c1ccc2c(c1)N(Cc1nc(-c3ccc(Cl)cc3)oc1C)C(=O)C1CCCN21` (stereo not drawn), the inhibition was determined as 78.9%. The same measure, in the same setting: under `CCCCCn1c(SCCCC)nc2c1c(=O)[nH]c(=O)n2C` stands 91.1%; under `CC1CC(C)(C)NC(=S)S1` (stereo not drawn), 66%; under `CCCCC[C@H](O)/C=C/[C@H]1C=CC(=O)[C@@H]1C/C=C\CCCC(=O)O`, 101%. Regarding `c1ccc(N2CCN(c3nc4cc5c(cc4s3)OCO5)CC2)cc1`, the inhibition is 97.6%. Still for that read-out and setting: under `COc1ccc(N2CCN(Cc3cc(=O)oc4cc5c(cc34)CCCC5)CC2)cc1` stands 88.8%; under `COC(=O)c1oc2ccc(Br)cc2c1NC(=O)c1ccccc1`, 94%; under `CCOc1ccc(N2Cc3ccccc3C2)cc1`, 80%.

Consider `Cc1ccc(-n2c(N)c(C(=O)N3CCCCC3)sc2=S)cc1`, for which the inhibition was 79.5%.

With `S=C(Nc1ccccn1)c1ccccn1`, the inhibition came to 85.8%.

Turning to `C1=C(c2ccc(-c3ccccc3)cc2)Nc2ncnn2C1c1ccco1` (stereo not drawn), the inhibition worked out at 48.6%.

For the compound `OCCN1CCN(C(=S)c2ccc(Cl)c(Cl)c2)CC1`, the inhibition is 76.6%. On to `N#Cc1c(NC(=O)CN2CCN(S(=O)(=O)c3ccc4c(c3)OCCO4)CC2)sc2c1CCC2`, for which the inhibition was 81.9%. The same measure, in the same setting: with `Cc1ccc(-n2nc(C)c3c2NC(=O)CSC3c2ccc3c(c2)OCO3)cc1` (stereo not drawn) the figure was 89.4%; with `O=C(NC1CCCCC1)c1sc(=S)n2c1[nH]c(=O)c1ccccc12`, 96.5%; with `Cc1nn2c(-c3cccc(NC(=O)CSc4nc5ccccc5o4)c3)nnc2c2ccccc12`, 98.2%. Take `Nc1nnc(CSCc2ccc(F)cc2)s1`: the inhibition was 51.7%.

On to `O=C(CSc1nc2sc3c(c2c(=O)n1-c1ccccc1)CCCC3)NCc1ccco1`, for which the inhibition was 77.8%.

Consider `O=C(Nc1ccc2nc(-c3ccco3)c(-c3ccco3)nc2c1)N1CCCCCC1`, for which the inhibition was determined as 97%.

As for `Cc1ccccc1NC(=O)CSc1nc2c(c(-c3ccco3)c1C#N)CCCC2`, the inhibition was 97.2%. On the same count and under the same terms, with `CN1CCN(C(=O)c2sc(=S)n(-c3ccccc3)c2N)CC1` the figure was 73.1%; with `O=C(O)/C=C/c1ccc(O)c(O)c1`, 52.1%. Regarding `CC(C)c1nnc(NC(=O)c2c(O)c3cccc4c3n(c2=O)CCC4)s1`, the inhibition amounted to 64.9%.

As to `C=CCOC(=O)C1=C(C)NC(SCC(=O)Nc2ccc(C)c(Cl)c2)=C(C#N)C1c1ccco1` (stereo not drawn), the inhibition came out at 98.7%. On to `CCOC(=O)c1c(NC(=O)c2ccc(-n3cnnn3)cc2)sc2c1CCCC2`, for which the inhibition is 88.3%.

Consider `Cc1cccc(Nc2n[nH]c(=S)s2)c1C`, for which the inhibition turned out to be 96.9%.

Turning to `Cc1ccc(NC(=O)CSc2nnc(-c3ccc(S(=O)(=O)N4CCCC4)cc3)o2)cc1C`, the inhibition was determined as 88.6%. On the same count and under the same terms, with `COc1ccc(N2CSC3=C(C#N)C(c4cc(OC)c(OC)cc4OC)CC(=O)N3C2)c(OC)c1` (stereo not drawn) the figure was 76.1%; with `O=S(=O)(c1ccc(S(=O)(=O)N2CCN(C/C=C/c3ccccc3)CC2)cc1)N1CCCC1`, 96.9%.

For `c1ccc2c(c1)OCC(c1nnc3sc(-c4ccc5c(c4)OCO5)nn13)O2` (stereo not drawn), the inhibition came to 97.2%.

`O=C1C=Cc2ccccc2C1=O`: the inhibition is 97.7%. As for `CCOC(=O)c1c(NC(=O)c2cc(C3CC3)on2)sc2c1CCCC2`, the inhibition was determined as 97.1%. For `CCN(CC)C1=CC(=O)OC12CCCCC2`, the inhibition stood at 65.8%.
